Consider 14 compounds from patent publication EP4667464A1 (Cyrus Therapeutics Inc., priority 2023, dated 2024).

Read-outs that look alike come from different tables or passages of the source. Some results are limits rather than exact numbers.

One experiment deals with T1, SOS1 (Homo sapiens, UniProt Q07889).
T1 construct: HIS-SOS1cat (160 nM; Cytoskeleton, US); His (N); purchased Cytoskeleton
T1 sequence (Q07889 564-1049 limits assumed): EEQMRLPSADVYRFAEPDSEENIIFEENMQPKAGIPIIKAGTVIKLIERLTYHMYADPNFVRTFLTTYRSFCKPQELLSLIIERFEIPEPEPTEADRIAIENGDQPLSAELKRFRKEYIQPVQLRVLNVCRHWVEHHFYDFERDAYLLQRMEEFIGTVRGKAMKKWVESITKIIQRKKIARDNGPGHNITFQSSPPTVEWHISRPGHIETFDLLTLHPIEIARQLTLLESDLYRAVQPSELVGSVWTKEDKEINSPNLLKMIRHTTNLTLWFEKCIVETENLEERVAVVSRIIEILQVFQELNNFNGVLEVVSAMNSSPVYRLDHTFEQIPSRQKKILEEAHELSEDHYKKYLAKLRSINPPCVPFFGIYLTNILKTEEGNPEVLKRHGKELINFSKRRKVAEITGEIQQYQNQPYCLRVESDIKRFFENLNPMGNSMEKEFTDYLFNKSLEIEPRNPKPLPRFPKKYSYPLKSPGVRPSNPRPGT
In words: SOS-catalyzed nucleotide exchange assay (HTRF, SOS1-mediated GTP loading of KRAS G12D). Format: biochemical. As to the method: SOS1 activity was measured by SOS1-mediated GTP loading quantification of KRAS^G12D. GTP loaded KRAS^G12D was detected by HTRF (Homogeneous Time Resolved Fluorescence) using anti-GST terbium (Cisbio, France) as a donor and a fluorescence GTP analogue (EDA-GTP-DY-647P1, [DY-647P1 labeled 2'/3'-O-(2-aminoethyl-carbamoyl)guanosine-5'-triphosphate (Jena bioscience, Germany)]) as an acceptor.
KRAS^G12D working solution was prepared by adding equal amounts of GST-KRAS^G12D (100 nM) and anti-GST-terbium (2 nM; Cisbio, France) to the assay buffer and culturing on ice for 10 minutes. […] Control solution was prepared by adding equal volumes of EDA-GTP-DY-647P1 and the assay buffer for normalization control to exclude GEF-independent GTP loading and background signals.
10 uL of the KRAS^G12D solution was added to each well and incubated for 30 minutes at room temperature while shaking. HTRF was measured using a Thermo Varioskan (excitation 334 nm, emission 665 nm). The IC50 of each inhibitor was analyzed using Graphad Prism.

A further experiment addresses T2, KRAS G12C::SOS1 (Homo sapiens, UniProt Q07889).
T2 construct: purchased CISBIO 64KRASG12PEH
T2 sequence (Q07889 1-1333): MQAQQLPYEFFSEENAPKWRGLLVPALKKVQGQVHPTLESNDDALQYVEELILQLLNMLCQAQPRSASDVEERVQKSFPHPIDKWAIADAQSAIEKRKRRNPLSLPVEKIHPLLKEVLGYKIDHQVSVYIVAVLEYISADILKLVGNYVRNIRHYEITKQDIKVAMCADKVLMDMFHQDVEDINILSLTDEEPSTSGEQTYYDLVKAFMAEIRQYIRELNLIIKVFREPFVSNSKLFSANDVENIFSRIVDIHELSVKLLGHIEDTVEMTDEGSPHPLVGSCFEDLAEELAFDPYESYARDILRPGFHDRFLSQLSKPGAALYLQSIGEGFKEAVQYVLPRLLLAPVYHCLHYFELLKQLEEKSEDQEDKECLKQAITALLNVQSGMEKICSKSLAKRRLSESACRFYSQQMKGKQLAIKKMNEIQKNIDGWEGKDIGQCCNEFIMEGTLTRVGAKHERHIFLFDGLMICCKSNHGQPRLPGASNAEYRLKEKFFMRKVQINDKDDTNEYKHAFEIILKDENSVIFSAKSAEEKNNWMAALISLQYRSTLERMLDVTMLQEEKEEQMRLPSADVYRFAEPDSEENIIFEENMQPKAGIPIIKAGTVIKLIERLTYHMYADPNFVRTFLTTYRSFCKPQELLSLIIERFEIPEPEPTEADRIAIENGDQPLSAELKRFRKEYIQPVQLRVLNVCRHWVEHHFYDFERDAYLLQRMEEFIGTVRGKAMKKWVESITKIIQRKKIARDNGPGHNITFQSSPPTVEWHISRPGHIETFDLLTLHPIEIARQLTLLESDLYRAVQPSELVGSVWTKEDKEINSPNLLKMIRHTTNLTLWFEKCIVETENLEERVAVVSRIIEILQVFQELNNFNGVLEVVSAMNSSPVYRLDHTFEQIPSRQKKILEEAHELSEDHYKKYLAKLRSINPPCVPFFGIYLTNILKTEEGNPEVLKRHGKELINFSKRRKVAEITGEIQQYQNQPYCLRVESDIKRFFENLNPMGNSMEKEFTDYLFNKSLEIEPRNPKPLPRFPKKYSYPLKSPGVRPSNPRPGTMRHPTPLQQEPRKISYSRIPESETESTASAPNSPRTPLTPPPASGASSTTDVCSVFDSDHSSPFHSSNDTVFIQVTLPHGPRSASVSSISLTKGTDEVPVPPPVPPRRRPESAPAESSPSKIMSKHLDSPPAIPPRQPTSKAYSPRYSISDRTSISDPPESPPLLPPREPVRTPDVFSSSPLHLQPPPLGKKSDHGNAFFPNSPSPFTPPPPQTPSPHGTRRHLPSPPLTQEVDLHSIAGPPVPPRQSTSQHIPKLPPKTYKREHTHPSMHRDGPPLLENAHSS
In words: KRAS G12C::SOS1 protein-protein interaction (PPI) inhibition assay (HTRF). It is filed as binding. As to the method:
Protein-protein interaction between SOS1 and KRAS^G12c was detected using KRAS G12C/SOS1 binding kit from CISBIO (64KRASG12PEH, CISBIO, FRANCE) according to the manufacturer's assay method. Briefly, the maximum concentration of an inhibitor sample was set to be 3 µM, and the inhibitor sample was diluted 7 times by 1/3, and samples having a total of 8 concentrations were prepared. In HTRF (Homogeneous Time-Resolved Fluorescence) exclusive 96-well low-volume white plate (66PL96005, CISBIO, FRANCE), 2 µL of an inhibitor sample prepared for each concentration, 5 µL of a mixed solution of Tag1 labeled KRAS^G12c protein and GTP diluted with the dilution solution provided by the manufacturer, and 5 µL of Tag2 labeled SOS1 protein were mixed, and added with 8 µL of a diluted solution where anti-Tag1 KRAS^G12C XL665 (HTRF acceptor) labeled antibody and anti-Tag2 SOS1 Terbium cryptate (HTRF donor) labeled antibody were mixed in an equal ratio and cultured at room temperature for 2 h.

[1] abbreviates: GST-KRAS G12D, HIS-SOS1cat, compound 128 pM to 10 µM, read-out: SOS-catalyzed nucleotide exchange assay.
Setting [2] is: 8 concentrations from 3 µM, three replicates, read-out: KRAS G12C::SOS1 PPI.

In the case of `C[C@@H](NC(=O)c1ccc(=O)n(-c2cncc(-c3cnnn3C3CN(CCO)C3)c2)n1)c1cccc(C(F)(F)F)c1F` [Example 20-1, (R)-N-(1-(2-fluoro-3-(trifluoromethyl)phenyl)ethyl)-1-(5-(1-(1-(2-hydroxyethyl)azetidin-3-yl)-1H-1,2,3-triazol-5-yl)pyridin-3-yl)-6-oxo-1,6-dihydropyridazine-3-carboxamide], the IC50 was under 50 nM at SOS1 (setting [1]) and 50 to 150 nM at KRAS G12C::SOS1 (setting [2]).

Regarding `C[C@@H](NC(=O)c1ccc(=O)n(-c2cncc(-c3cnnn3C3CN(C)C3)c2)n1)c1cccc(C(F)(F)F)c1F` [Example 20, N-{(R)-1-[2-fluoro-3-(trifluoromethyl)phenyl]ethyl}-1-{5-[1-(1-methyl-3-azetidinyl)-1H-1,2,3-triazol-5-yl]-3-pyridyl}-6-oxo-1,6-dihydropyridazine-3-carboxamide], the IC50 at SOS1 (setting [1]) and on KRAS G12C::SOS1 (setting [2]) was under 50 nM each time.

For the compound `C[C@@H](NC(=O)c1cc(C#N)c(=O)n(-c2cc(-c3cnnn3C)cnc2F)n1)c1cccc(C(F)(F)CO)c1F` [Example 3-3], the IC50 at SOS1 (setting [1]) and on KRAS G12C::SOS1 (setting [2]) was under 50 nM in each case.

`C[C@@H](NC(=O)c1cc(C(F)(F)F)c(=O)n(-c2cncc(-c3cnnn3C)c2)n1)c1cccc(C(F)(F)F)c1F` [Example 1-69, N-[(R)-1-[2-fluoro-3-(trifluoromethyl)phenyl]ethyl]-1-[5-(1-methyl-1H-1,2,3-triazol-5-yl)-3-pyridyl]-6-oxo-5-(trifluoromethyl)-pyridazine-3-carboxamide]: the IC50 is 50 to 150 nM on SOS1 (setting [1]) and under 50 nM at KRAS G12C::SOS1 (setting [2]).

As for `CCn1nncc1-c1cncc(-n2nc(C(=O)N[C@H](C)c3cccc(C(F)(F)CO)c3F)ccc2=O)c1` [Example 1-18, N-[(1R)-1-[3-(1,1-difluoro-2-hydroxy-ethyl)-2-fluoro-phenyl]ethyl]-1-[5-(3-ethyltriazol-4-yl)-3-pyridyl]-6-oxo-pyridazine-3-carboxamide], the IC50 on SOS1 (setting [1]) and at KRAS G12C::SOS1 (setting [2]) was under 50 nM in each case.

Consider `CC(=O)N1CC(n2nncc2-c2cncc(-n3nc(C(=O)N[C@H](C)c4cccc(C(F)(F)F)c4F)ccc3=O)c2)C1` [Example 20-10, (R)-1-(5-(1-(1-acetylazetidin-3-yl)-1H-1,2,3-triazol-5-yl)pyridin-3-yl)-N-(1-(2-fluoro-3-(trifluoromethyl)phenyl)ethyl)-6-oxo-1,6-dihydropyridazine-3-carboxamide], for which the IC50 at SOS1 (setting [1]) and at KRAS G12C::SOS1 (setting [2]) was under 50 nM throughout.

On to `Cc1cc(C(=O)N[C@H](C)c2cccc(C(F)(F)F)c2F)cn(-c2cncc(-c3cnnn3C)c2)c1=O` [Example 1-21, (R)-N-(1-(2-fluoro-3-(trifluoromethyl)phenyl)ethyl)-3-methyl-5'-(1-methyl-1H-1,2,3-triazol-5-yl)-2-oxo-2H-[1,3'-bipyridine]-5-carboxamide], for which the IC50 on SOS1 (setting [1]) and at KRAS G12C::SOS1 (setting [2]) was under 50 nM throughout.

Regarding `C[C@@H](NC(=O)c1ccc(=O)n(-c2cncc(-c3cnnn3[C@H]3CC3(F)F)c2)n1)c1cccc(C(F)(F)CO)c1F` (single isomer, unassigned) [Example 25], the IC50 at SOS1 and against KRAS G12C::SOS1 was under 50 nM in each case.

On to `C[C@@H](NC(=O)c1ccc(=O)n(-c2cncc(-c3cnnn3C3CCNCC3)c2)n1)c1cccc(C(F)(F)F)c1F` [Example 20-4, N-[(1R)-1-[2-fluoro-3-(trifluoromethyl)phenyl]ethyl]-6-oxo-1-[5-[3-(4-piperidyl)triazol-4-yl]-3-pyridyl]pyridazine-3-carboxamide], for which the IC50 was under 50 nM on SOS1 and 50 to 150 nM against KRAS G12C::SOS1.

Turning to `C[C@@H](NC(=O)c1cc(C2CCCCC2)c(=O)n(-c2cncc(-c3cnnn3C)c2)n1)c1cccc(C(F)(F)F)c1F` [Example 1-65, N-{(R)-1-[2-fluoro-3-(trifluoromethyl)phenyl]ethyl}-5-cyclohexyl-1-[5-(1-methyl-1H-1,2,3-triazol-5-yl)-3-pyridyl]-6-oxo-1,6-dihydropyridazine-3-carboxamide], the IC50 on SOS1 (setting [1]) is over 150 nM; at KRAS G12C::SOS1 (setting [2]), 50 to 150 nM.

Turning to `C[C@@H](O)c1cc(C(=O)N[C@H](C)c2cccc(C(F)(F)F)c2F)nn(-c2cncc(-c3cnnn3C)c2)c1=O` (single isomer, unassigned) [Example 9], the IC50 is under 50 nM at SOS1 (setting [1]) and 50 to 150 nM at KRAS G12C::SOS1 (setting [2]).

For `C[C@@H](NC(=O)c1ccc(=O)n(-c2cnc(F)c(-c3cnnn3C)c2)n1)c1cccc(C(F)F)c1F` [Example 6-1, N-{(1R)-1-(3-(difluoromethyl)-2-fluorophenyl)ethyl}-1-(6-fluoro-5-(1-methyl-1H-1,2,3-triazol-5-yl)pyridin-3-yl)-6-oxo-1,6-dihydropyridazine-3-carboxamide], the IC50 at SOS1 (setting [1]) is 50 to 150 nM; on KRAS G12C::SOS1 (setting [2]) it was over 150 nM.

For `Cc1c([C@@H](C)NC(=O)c2ccc(=O)n(-c3cncc(-c4cnnn4C)c3)n2)cc(N)cc1C(F)(F)F` [Example 2-2, N-[(1R)-1-[5-amino-2-methyl-3-(trifluoromethyl)phenyl]ethyl]-1-[5-(3-methyltriazol-4-yl)-3-pyridyl]-6-oxo-pyridazine-3-carboxamide], the IC50 on SOS1 (setting [1]) and at KRAS G12C::SOS1 (setting [2]) was under 50 nM throughout.

`C[C@@H](NC(=O)c1ccc(=O)n(-c2cncc(-c3cnnn3C3CCN(S(C)(=O)=O)CC3)c2)n1)c1cccc(C(F)(F)F)c1F` [Example 20-8, (R)-N-(1-(2-fluoro-3-(trifluoromethyl)phenyl)ethyl)-1-(5-(1-(1-(methylsulfonyl)piperidine-4-yl)-1H-1,2,3-triazol-5-yl)pyridin-3-yl)-6-oxo-1,6-dihydropyridazine-3-carboxamide]: the IC50 on SOS1 (setting [1]) and at KRAS G12C::SOS1 (setting [2]) was under 50 nM throughout.
